Experimental data reported in the supplement of paper PMC10307832.

Experiments:
Assay in all cases: relative viability (nuclei count vs DMSO), 5 days (fraction); higher = more cells survive
Venetoclax + Bortezomib = compound: CC1(C)CCC(CN2CCN(c3ccc(C(=O)NS(=O)(=O)c4ccc(NCC5CCOCC5)c([N+](=O)[O-])c4)c(Oc4cnc5[nH]ccc5c4)c3)CC2)=C(c2ccc(Cl)cc2)C1 [Venetoclax] + CC(C)C[C@H](NC(=O)[C@H](Cc1ccccc1)NC(=O)c1cnccn1)B(O)O [Bortezomib] (partner 0.002 µM)
Method in brief: (§1)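 Relative viability equals treated-well nuclei counts divided by vehicle-well nuclei counts. Counts came from 4× images of lung cancer cell lines grown in 1536-well plates for 5 days after pin-tool dosing on the day after seeding. Dosing used one drug alone or a fixed anchor-drug dose plus five library-drug doses (not always all listed) in √10 steps, and values are medians of duplicate plates.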

Venetoclax + Dasatinib = compound: CC1(C)CCC(CN2CCN(c3ccc(C(=O)NS(=O)(=O)c4ccc(NCC5CCOCC5)c([N+](=O)[O-])c4)c(Oc4cnc5[nH]ccc5c4)c3)CC2)=C(c2ccc(Cl)cc2)C1 [Venetoclax] + Cc1nc(Nc2ncc(C(=O)Nc3c(C)cccc3Cl)s2)cc(N2CCN(CCO)CC2)n1 [Dasatinib] (partner 0.075 µM)
Method in brief: as §1

Selumetinib + Trametinib = compound: Cn1cnc2c(F)c(Nc3ccc(Br)cc3Cl)c(C(=O)NOCCO)cc21 [Selumetinib] + CC(=O)Nc1cccc(-n2c(=O)n(C3CC3)c(=O)c3c(Nc4ccc(I)cc4F)n(C)c(=O)c(C)c32)c1 [Trametinib] (partner 0.02 µM)
Method in brief: as §1

Selumetinib + Foretinib = compound: Cn1cnc2c(F)c(Nc3ccc(Br)cc3Cl)c(C(=O)NOCCO)cc21 [Selumetinib] + COc1cc2c(Oc3ccc(NC(=O)C4(C(=O)Nc5ccc(F)cc5)CC4)cc3F)ccnc2cc1OCCCN1CCOCC1 [Foretinib] (partner 0.25 µM)
Method in brief: as §1

Cell Line | relative viability (Venetoclax + Bortezomib; first compound 0.01 µM) | relative viability (Venetoclax + Bortezomib; first compound 0.03162 µM) | relative viability (Venetoclax + Bortezomib; first compound 0.1 µM) | relative viability (Venetoclax + Bortezomib; first compound 0.3162 µM) | relative viability (Venetoclax + Bortezomib; first compound 1 µM) | relative viability (Venetoclax + Dasatinib; first compound 0.01 µM) | relative viability (Venetoclax + Dasatinib; first compound 0.03162 µM) | relative viability (Venetoclax + Dasatinib; first compound 0.1 µM) | relative viability (Venetoclax + Dasatinib; first compound 0.3162 µM) | relative viability (Venetoclax + Dasatinib; first compound 1 µM) | relative viability (Selumetinib + Trametinib; first compound 0.02 µM) | relative viability (Selumetinib + Trametinib; first compound 0.06325 µM) | relative viability (Selumetinib + Trametinib; first compound 0.2 µM) | relative viability (Selumetinib + Trametinib; first compound 0.6325 µM) | relative viability (Selumetinib + Foretinib; first compound 0.02 µM) | relative viability (Selumetinib + Foretinib; first compound 0.06325 µM) | relative viability (Selumetinib + Foretinib; first compound 0.2 µM) | relative viability (Selumetinib + Foretinib; first compound 0.6325 µM)
A-427 | 0.983 | 0.988 | 0.982 | 1.08 | 1.06 | 0.667 | 0.726 | 0.667 | 0.687 | 0.639 | 0.731 | 0.781 | 0.812 | 0.794 | 1.17 | 1.11 | 0.954 | 0.756
NCI-H3122 | 1.06 | 0.968 | 1.01 | 0.985 | 1.02 | 0.811 | 0.757 | 0.885 | 0.786 | 0.817 | 0.202 | 0.212 | 0.199 | 0.266 | 0.866 | 0.774 | 0.719 | 0.583
NCI-H1563 | 0.792 | 0.896 | 0.827 | 0.944 | 0.78 | 0.531 | 0.516 | 0.445 | 0.442 | 0.461 |  |  |  |  | 0.879 | 0.955 | 0.903 | 0.824
NCI-H358 |  |  |  |  |  | 0.309 | 0.17 | 0.15 | 0.158 | 0.161 | 0.125 | 0.134 | 0.121 | 0.11 | 0.43 | 0.331 | 0.272 | 0.291
SK-LU-1 | 0.937 | 1.19 | 1.24 | 1.34 | 1.08 | 0.251 | 0.168 | 0.192 | 0.191 | 0.181 | 0.522 | 0.442 | 0.424 | 0.412 | 0.762 | 0.778 | 0.711 | 0.449
NCI-H2347 | 0.927 | 1.5 | 1.14 | 1.03 | 1.02 | 0.328 | 0.318 | 0.322 | 0.309 | 0.268 | 0.264 | 0.294 | 0.287 | 0.278 | 0.93 | 0.704 | 0.451 | 0.421
IA-LM | 0.745 | 0.701 | 0.959 | 0.698 | 0.823 |  |  |  |  |  |  |  |  |  | 0.949 | 0.837 | 0.576 | 0.403
HCC-15 | 1.05 | 1.04 | 0.964 | 1 | 0.875 | 0.607 | 0.627 | 0.587 | 0.645 | 0.549 | 0.403 | 0.426 | 0.332 | 0.333 | 0.777 | 0.637 | 0.439 | 0.293
PC-3 [JPC-3] | 0.764 | 0.822 | 0.794 | 0.771 | 0.829 | 0.863 | 0.991 | 0.995 | 1.01 | 0.942 | 0.65 | 0.641 | 0.685 | 0.656 | 0.944 | 0.92 | 0.922 | 0.713
